# Test results taken from patent US20230202990A1, “CYCLOHEXYL SUBSTITUTED TRIAZOLES” (Hoffmann-La Roche Inc., priority 2020, published 2023).
# Molecular target: T1, human V1a receptor (Homo sapiens, UniProt P37288)
# T1 construct: expressed in transfected cells; host or cells: HEK293 cells, transiently transfected; cell membranes
# Experiment: human V1a receptor binding studies (3H-Vasopressin SPA, HEK293 cell membranes)
# Details: competition with 3H-Vasopressin on membranes of HEK293 cells transiently transfected with human V1a receptor; Ki by Cheng-Prussoff equation; read-out: pKi (hV1a) (converted)
# Description: The human V1a receptor was cloned by RT-PCR from total human liver RNA. The coding sequence was subcloned in an expression vector after sequencing to confirm the identity of the amplified sequence. […] Cell membranes were prepared from HEK293 cells transiently transfected with the expression vector and grown in 20 liter fermenters with the following protocol.
# 50 g of cells are re-suspended in 30 ml freshly prepared ice cold Lysis buffer (50 mM HEPES, 1 mM EDTA, 10 mM MgCl2 adjusted to pH= 7.4 + complete cocktail of protease inhibitor (Roche Diagnostics)). Homogenized with Polytron for Imin and sonicated on ice for 2x 2 minutes at 80% intensity (Vibracell sonicator). The preparation is centrifuged 20 min at 500 g at 4° C., the pellet is discarded and the supernatant centrifuged 1 hour at 43 ′000g at 4° C. (19 ′000rpm). The pellet is re-suspended in 12.5 ml Lysis buffer+12.5 ml Sucrose 20% and homogenized using a Polytron for 1-2 min. The protein concentration is determined by the Bradford method and aliquots are stored at -80° C. until use. For binding studies 60 mg Yttrium silicate SPA beads (Amersham) are mixed with an aliquot of membrane in binding buffer (50 mM Tris, 120 mM NaCl, 5 mM KCl, 2 mM CaCl2, 10 mM MgCl2) for 15 minutes with mixing. 50 µl of bead/membrane mixture is then added to each well of a 96 well plate, followed by 50 µl of 4 nM 3H-Vasopressin (American Radiolabeled Chemicals). For total binding measurement 100 µl of binding buffer are added to the respective wells, for non-specific binding 100 µl of 8.4 mM cold vasopressin and for compound testing 100 µl of a serial dilution of each compound in 2% DMSO. The plate is incubated 1 h at room temperature, centrifuged 1 min at 1000 g and counted on a Packard Top-Count. Non-specific binding counts are subtracted from each well and data is normalized to the maximum specific binding set at 100%. To calculate an IC50 the curve is fitted using a non-linear regression model (XLfit) and the Ki is calculated using the Cheng-Prussoff equation.
# T1 sequence (P37288 whole entry): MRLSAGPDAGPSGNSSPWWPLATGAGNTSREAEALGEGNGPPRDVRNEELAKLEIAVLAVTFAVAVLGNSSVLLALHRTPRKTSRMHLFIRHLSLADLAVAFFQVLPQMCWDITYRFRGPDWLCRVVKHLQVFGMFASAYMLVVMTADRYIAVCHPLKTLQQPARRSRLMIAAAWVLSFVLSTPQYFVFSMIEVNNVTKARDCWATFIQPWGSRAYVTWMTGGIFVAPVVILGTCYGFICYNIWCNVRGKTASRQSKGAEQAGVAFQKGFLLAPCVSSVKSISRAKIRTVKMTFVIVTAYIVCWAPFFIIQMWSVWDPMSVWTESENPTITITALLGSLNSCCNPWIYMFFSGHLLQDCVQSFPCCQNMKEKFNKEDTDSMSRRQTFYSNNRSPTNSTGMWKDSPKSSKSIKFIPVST
row,Compound,Ki
1,Cc1nnc([C@H]2CC[C@H](Oc3ccccn3)CC2)n1-c1ccc(Cl)cn1 [Example 23],17 nM
2,"Cc1ccc(-n2c(C)nnc2[C@H]2CC[C@H](Oc3ccccn3)CC2)cc1F [Example 20, trans((4-(4-(3-Fluoro-4-methylphenyl)-5-methyl-4H-1,2,4-triazol-3-yl)cyclohexyl)oxy)pyridine]",1.82 nM
3,Cc1cc(Cl)ccc1-n1c(C)nnc1[C@H]1CC[C@H](Oc2ccccn2)CC1 [Example 13],0.269 nM
4,"Cc1nnc([C@H]2CC[C@H](Oc3ccccn3)CC2)n1-c1ncc(Cl)cc1F [Example 24, transChloro-3-fluoro-2-(3-methyl(4-(pyridin-2-yloxy)cyclohexyl)-4H-1,2,4-triazol-4-yl)pyridine]",61.7 nM
5,"COc1cc(Cl)ccc1-n1c(C)nnc1[C@H]1CC[C@@H](Oc2ccccc2)CC1 [Example 2, cis(4-Chloro-2-methoxy-phenyl)-3-methyl-5-(4-phenoxy-cyclohexyl)-4H-[1,2,4]triazole]",7.59 nM
6,"Cc1nnc([C@H]2CC[C@H](Oc3ccccn3)CC2)n1-c1ccc(Cl)cc1F [Example 12, trans((4-(4-(4-Chlorofluorophenyl)-5-methyl-4H-1,2,4-triazol-3-yl)cyclohexyl)oxy)pyridine]",0.759 nM
7,"CSc1cc(Cl)ccc1-n1c(C)nnc1[C@H]1CC[C@H](Oc2ccccn2)CC1 [Example 14, trans[4-[4-(4-Chloromethylsulfanylphenyl)-5-methyl-1,2,4-triazol-3-yl]cyclohexyl]oxypyridine]",1.58 nM
8,"Cc1nnc([C@H]2CC[C@H](Oc3ccccn3)CC2)n1-c1ccc(C#N)cc1 [Example 8, trans(3-Methyl-5-((1r,4r)(pyridin-2-yloxy)cyclohexyl)-4H-1,2,4-triazolyl)benzonitrile]",38.9 nM
9,"FC(F)(F)c1nnc([C@H]2CC[C@H](Oc3ccccn3)CC2)n1-c1ccc(Cl)cc1 [Example 33, trans((4-(4-(4-Chlorophenyl)-5-(trifluoromethyl)-4H-1,2,4-triazol-3-yl)cyclohexyl)oxy)pyridine]",2.14 nM
10,"Cc1nnc([C@H]2CC[C@H](Oc3ccccn3)CC2)n1-c1ccc(C(F)F)cc1 [Example 7, trans((4-(4-(4-(Difluoromethyl)phenyl)-5-methyl-4H-1,2,4-triazol-3-yl)cyclohexyl)oxy)pyridine]",18.6 nM
11,"COCc1nnc([C@H]2CC[C@H](Oc3ccccn3)CC2)n1-c1ccc(Cl)cc1 [Example 35, trans(4-(4-(4-Chlorophenyl)-5-(methoxymethyl)-4H-1,2,4-triazol-3-yl)cyclohexyloxy)pyridine]",0.631 nM
12,"Cc1nnc([C@H]2CC[C@H](Oc3ccccn3)CC2)n1-c1ccc(F)c(F)c1 [Example 21, trans((4-(4-(3,4-Difluorophenyl)-5-methyl-4H-1,2,4-triazol-3-yl)cyclohexyl)oxy)pyridine]",7.08 nM
13,"Cc1nnc([C@H]2CC[C@H](Oc3ccccn3)CC2)n1-c1ccc(F)cc1 [Example 4, trans((4-(4-(4-Fluorophenyl)-5-methyl-4H-1,2,4-triazol-3-yl)cyclohexyl)oxy)pyridine]",2.04 nM
14,"Cc1nnc([C@H]2CC[C@H](Oc3ccccn3)CC2)n1-c1ccc(Br)cc1 [Example 9, trans((4-(4-(4-Bromophenyl)-5-methyl-4H-1,2,4-triazol-3-yl)cyclohexyl)oxy)pyridine]",0.195 nM
15,"Cc1nnc([C@H]2CC[C@H](Oc3ccccn3)CC2)n1-c1ccccc1 [Example 5, trans((4-(5-Methyl-4-phenyl-4H-1,2,4-triazol-3-yl)cyclohexyl)oxy)pyridine]",5.25 nM

# Results, then the compound that gave them:
row,Ki,Compound
1,0.661 nM,"COCc1nnc([C@H]2CC[C@H](Oc3ccc(C)nc3)CC2)n1-c1ccc(Cl)cc1 [Example 67, trans[4-[4-(4-Chlorophenyl)(methoxymethyl)-1,2,4-triazol-3-yl]cyclohexyl]oxy-2-methylpyridine]"
2,0.575 nM,"CSCCc1nnc([C@H]2CC[C@H](Oc3ccccn3)CC2)n1-c1ccc(Cl)cc1 [Example 46, trans((4-(4-(4-Chlorophenyl)-5-(2-(methylthio)ethyl)-4H-1,2,4-triazol-3-yl)cyclohexyl)oxy)pyridine]"
3,64.6 nM,"C[S+]([O-])Cc1nnc([C@H]2CC[C@H](Oc3ccccn3)CC2)n1-c1ccc(Cl)cc1 (mixture of isomers) [Example 37, trans-(rac)-2-((4-(4-(4-Chlorophenyl)-5-((methylsulfinyl)methyl)-4H-1,2,4-triazol-3-yl)cyclohexyl)oxy)pyridine]"
4,2.95 nM,"COCc1nnc([C@H]2CC[C@H](Oc3cnc(C)cn3)CC2)n1-c1ccc(Cl)cc1 [Example 72, trans[4-[4-(4-Chlorophenyl)-5-(methoxymethyl)-1,2,4-triazol-3-yl]cyclohexyl]oxy-5-methylpyrazine]"
5,5.01 nM,"Cc1cnc(O[C@H]2CC[C@H](c3nnc(C)n3-c3ccc(Cl)cc3)CC2)cn1 [Example 70, trans[4-[4-(4-Chlorophenyl)-5-methyl-1,2,4-triazol-3-yl]cyclohexyl]oxy-5-methylpyrazine]"
6,2.19 nM,"Cc1ccc(-n2cnnc2[C@H]2CC[C@H](Oc3ccccn3)CC2)c(C)c1 [Example 54, trans((4-(4-(2,4-Dimethylphenyl)-4H-1,2,4-triazol-3-yl)cyclohexyl)oxy)pyridine]"
7,2.45 nM,"COCc1nnc([C@H]2CC[C@H](Oc3cnccn3)CC2)n1-c1ccc(Cl)cc1 [Example 69, trans[4-[4-(4-Chlorophenyl)-5-(methoxymethyl)-1,2,4-triazol-3-yl]cyclohexyl]oxypyrazine]"
8,2.14 nM,"CN(C)Cc1nnc([C@H]2CC[C@H](Oc3ccccn3)CC2)n1-c1ccc(Cl)cc1 [Example 43, trans(4-(4-Chlorophenyl)-5-(4-(pyridin-2-yloxy)cyclohexyl)-4H-1,2,4-triazol-3-yl)-N,N-dimethylmethanamine]"
9,33.1 nM,CN(C)CCc1nnc([C@H]2CC[C@H](Oc3ccccn3)CC2)n1-c1ccc(Cl)cc1 [Example 47]
10,17.8 nM,"Cc1ccc(-n2c(C)nnc2[C@H]2CC[C@H](Oc3cnc(C)cn3)CC2)cc1 [Example 71, transMethyl-5-[4-[5-methyl-4-(4-methylphenyl)-1,2,4-triazol-3-yl]cyclohexyl]oxypyrazine]"
11,8.13 nM,"COCc1nnc([C@H]2CC[C@H](Oc3cnccn3)CC2)n1-c1ccc(C)cc1 [Example 68, trans[4-[5-(Methoxymethyl)-4-(4-methylphenyl)-1,2,4-triazol-3-yl]cyclohexyl]oxypyrazine]"
12,32.4 nM,CN(C)CCOc1nnc([C@H]2CC[C@H](Oc3ccccn3)CC2)n1-c1ccc(Cl)cc1 [Example 51]
13,2.24 nM,"Clc1ccc(-n2cnnc2[C@H]2CC[C@H](Oc3ccccn3)CC2)cc1 [Example 52, trans((4-(4-(4-Chlorophenyl)-4H-1,2,4-triazol-3-yl)cyclohexyl)oxy)pyridine]"
14,91.2 nM,"C[S@+]([O-])Cc1nnc([C@H]2CC[C@H](Oc3ccccn3)CC2)n1-c1ccc(Cl)cc1 (stereo in doubt) [Example 38, trans-(-)-2-((4-(4-(4-Chlorophenyl)-5-((methylsulfinyl)methyl)-4H-1,2,4-triazol-3-yl)cyclohexyl)oxy)pyridine]"
15,3.39 nM,"Cc1ccc(-n2c(C)nnc2[C@H]2CC[C@H](Oc3ccc(C)nc3)CC2)cc1 [Example 65, transMethyl-5-[4-[5-methyl-4-(4-methylphenyl)-1,2,4-triazol-3-yl]cyclohexyl]oxypyridine]"
16,2.29 nM,"Cc1nnc([C@H]2CC[C@H](Oc3ccc(C(F)F)cn3)CC2)n1-c1ccc(Cl)cc1 [Example 60, trans((4-(4-(4-Chlorophenyl)-5-methyl-4H-1,2,4-triazol-3-yl)cyclohexyl)oxy)-5-(difluoromethyl)pyridine]"
17,0.447 nM,"Cc1ccc(-n2c(C)nnc2[C@H]2CC[C@H](Oc3ccc(C)cn3)CC2)cc1 [Example 57, transMethyl-2-[4-[5-methyl-4-(4-methylphenyl)-1,2,4-triazol-3-yl]cyclohexyl] oxypyridine]"
18,0.646 nM,"COc1nnc([C@H]2CC[C@H](Oc3ccccn3)CC2)n1-c1ccc(Cl)cc1 [Example 49, trans((4-(4-(4-Chlorophenyl)-5-methoxy-4H-1,2,4-triazol-3-yl)cyclohexyl)oxy)pyridine]"
19,31.6 nM,"C[S@@+]([O-])Cc1nnc(C2CCC(Oc3ccccn3)CC2)n1-c1ccc(Cl)cc1 (single isomer, unassigned) [Example 39, trans-(+)-2-((4-(4-(4-Chlorophenyl)-5-((methylsulfinyl)methyl)-4H-1,2,4-triazol-3-yl)cyclohexyl)oxy)pyridine]"
20,0.324 nM,Cc1ccc(O[C@H]2CC[C@H](c3nnc(C)n3-c3ccc(Cl)cc3)CC2)cn1 [Example 64]
